Measured values published in the NIST ThermoML archive (doi:10.1021/je400184t).
“And” between values parts separate entries of the source, which are not always exact repeats. Identical values can stand only once. Numbers after ± are expanded uncertainties.

Assays:
[1] = 101 kPa, Liquid, Vibrating tube method
[2] = xn = mol fraction of the nth substance listed; conditions: 101 kPa, Liquid, Vibrating tube method, x1 = 1

SMILES	mass density ([1]; 298.15 K)	mass density ([2]; 298.15 K)	mass density ([1]; 288.15 K)	mass density ([1]; 353.15 K)	mass density ([2]; 288.15 K)	mass density ([2]; 353.15 K)
CCCCCCC [heptane]	679.537 ± 0.26 kg/m3	–	–	–	–	–
CCCCCCC [heptane] + Cc1ccccc1	–	679.537 ± 0.26 kg/m3	–	–	–	–
CN(CCO)CCO [N-methyldiethanolamine]	1036.81 ± 0.21 kg/m3	–	1046.36 ± 0.21 kg/m3	994.015 ± 0.2 kg/m3	–	–
NCCO [2-aminoethan-1-ol]	1012.12 ± 0.2 kg/m3	–	1019.87 ± 0.2 kg/m3	968.332 ± 0.2 kg/m3	–	–
c1ccncc1 [pyridine] + NCCO	–	978.145 ± 0.2 kg/m3	–	–	988.041 ± 0.2 kg/m3	921.953 ± 0.21 kg/m3
c1ccncc1 [pyridine]	978.145 ± 0.2 kg/m3 and 978.086 ± 0.2 kg/m3	–	988.041 ± 0.2 kg/m3 and 988.343 ± 0.2 kg/m3	921.953 ± 0.21 kg/m3 and 921.952 ± 0.21 kg/m3	–	–
c1ccncc1 [pyridine] + CN(CCO)CCO	–	978.086 ± 0.2 kg/m3	–	–	988.343 ± 0.2 kg/m3	921.952 ± 0.21 kg/m3
Cc1ccccc1 [toluene]	862.222 ± 0.21 kg/m3	–	–	–	–	–
